This note sets out measurements from ChEMBL document CHEMBL3046253, “Design, synthesis and in vitro PDE4 inhibition activity of certain quinazolinone derivatives for treatment of asthma” (Med Chem Res, 2012).

The target in this test is 3',5'-cyclic-AMP phosphodiesterase 4B (Homo sapiens) (UniProt Q07343). Nature of the test: Inhibition of PDE4B2 (unknown origin) using FAM-cAMP as substrate at 10 uM after 60 min by fluorescence polarization assay. In general terms: In fluorescence polarisation assays a small probe gives low polarisation when free and higher when bound to something large.
Chain of 3',5'-cyclic-AMP phosphodiesterase 4B (Homo sapiens) (Q07343 whole entry): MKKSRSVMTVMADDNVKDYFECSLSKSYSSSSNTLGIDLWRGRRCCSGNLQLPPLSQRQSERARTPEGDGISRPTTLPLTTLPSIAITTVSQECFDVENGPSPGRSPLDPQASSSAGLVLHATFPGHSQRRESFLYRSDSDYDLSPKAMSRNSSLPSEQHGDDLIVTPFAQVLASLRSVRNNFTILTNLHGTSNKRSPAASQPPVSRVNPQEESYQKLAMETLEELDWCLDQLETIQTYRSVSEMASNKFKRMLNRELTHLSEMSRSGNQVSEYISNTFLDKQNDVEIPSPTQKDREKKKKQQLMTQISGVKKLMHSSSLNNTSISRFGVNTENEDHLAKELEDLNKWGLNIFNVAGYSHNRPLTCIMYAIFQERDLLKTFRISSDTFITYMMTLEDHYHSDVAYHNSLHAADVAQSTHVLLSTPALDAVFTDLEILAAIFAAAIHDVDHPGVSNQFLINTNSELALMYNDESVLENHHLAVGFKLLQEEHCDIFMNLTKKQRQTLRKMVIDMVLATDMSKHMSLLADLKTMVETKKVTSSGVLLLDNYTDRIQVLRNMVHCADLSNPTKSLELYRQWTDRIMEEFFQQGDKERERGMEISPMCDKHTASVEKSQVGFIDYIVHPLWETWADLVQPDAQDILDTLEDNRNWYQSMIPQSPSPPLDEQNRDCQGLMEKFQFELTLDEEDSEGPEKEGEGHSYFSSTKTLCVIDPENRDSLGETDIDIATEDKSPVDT
Turning to `CCCCn1c(N/N=C/c2cccc(O)c2)nc2ccccc2c1=O`, the inhibition came out at 11%. Under `CCCCN1C(=O)c2ccccc2NC1c1ccc(N(C)C)cc1` (stereo not given) stands 7%; under `COc1ccc(C2CNC(=O)C2)cc1OC1CCCC1` (stereo not given), 90%. Under `CCCCn1c(N/N=C/c2ccc(N(C)C)cc2)nc2ccccc2c1=O` stands 19%; under `CCCCN1C(=O)c2ccccc2NC1c1cccc([N+](=O)[O-])c1` (stereo not given), 15%; under `CCCCN1C(=O)c2ccccc2NC1c1ccc(O)c(OC)c1` (stereo not given), 15%.

Regarding `CCCCn1c(=O)c2ccccc2n2c(-c3ccc(O)c(OC)c3)nnc12`, the inhibition is 62%. The result for `CCCCn1c(=O)c2ccccc2n2c(-c3cccc(O)c3)nnc12` reads 44%. Under `CCCCn1c(=O)c2ccccc2n2c(-c3ccc(N(C)C)cc3)nnc12` stands 6%; under `CCCCn1c(=O)c2ccccc2n2c(-c3cccc([N+](=O)[O-])c3)nnc12`, 44%.

By inhibition is commonly meant the relative decrease from the control value, in per cent.
